According to the supplement of paper PMC10307832:

Key:
Experiment in all cases: relative viability (nuclei count vs DMSO), 5 days (fraction); higher = more cells survive
[1] = compound: CC1=CC=C(C=C1)C(=O)CN2C3=C(CCCC3)SC2=N [Pifithrin_alpha] + CS(=O)(=O)N1CCN(Cc2cc3nc(-c4cccc5[nH]ncc45)nc(N4CCOCC4)c3s2)CC1 [Pictilisib] (partner 1 µM)
Procedure, shortened: (§1)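 A single step with final 0.05% Triton X-100, 1% formaldehyde and 1 ug/ml Hoechst fixed the cells and stained nuclei 5 days after treatment. Lung cancer cell lines in 1536-well plates had been treated by pin tool the day after seeding with one drug alone or a fixed anchor-drug dose plus five library-drug doses (not always all listed) in √10 steps, and nuclei were counted on 4× images. Relative viability is the ratio of nuclei in treated wells to nuclei in vehicle wells, taken as the median of duplicate plates.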

Bemcentinib + Crizotinib = compound: Nc1nc(Nc2ccc3c(c2)CC[C@@H](N2CCCC2)CC3)nn1-c1cc2c(nn1)-c1ccccc1CCC2 [Bemcentinib] + C[C@@H](Oc1cc(-c2cnn(C3CCNCC3)c2)cnc1N)c1c(Cl)ccc(F)c1Cl [Crizotinib] (partner 1 µM)
Procedure, shortened: as §1

Axitinib + Olaparib = compound: CNC(=O)c1ccccc1Sc1ccc2c(/C=C/c3ccccn3)n[nH]c2c1 [Axitinib] + O=C(c1cc(Cc2n[nH]c(=O)c3ccccc23)ccc1F)N1CCN(C(=O)C2CC2)CC1 [Olaparib] (partner 8 µM)
Procedure, shortened: as §1

Axitinib + Phenformin = compound: CNC(=O)c1ccccc1Sc1ccc2c(/C=C/c3ccccn3)n[nH]c2c1 [Axitinib] + N=C(N)NC(=N)NCCc1ccccc1 [Phenformin] (partner 250 µM)
Procedure, shortened: as §1

## HCC-15
[1]; first compound 1 µM
  relative viability: 0.691
[1]; first compound 3.162 µM
  relative viability: 0.754
[1]; first compound 10 µM
  relative viability: 0.673
[1]; first compound 31.62 µM
  relative viability: 0.458
[1]; first compound 100 µM
  relative viability: 0.715
Bemcentinib + Crizotinib; first compound 0.04 µM
  relative viability: 0.834
Bemcentinib + Crizotinib; first compound 0.1265 µM
  relative viability: 0.91
Bemcentinib + Crizotinib; first compound 0.4 µM
  relative viability: 0.908
Bemcentinib + Crizotinib; first compound 1.265 µM
  relative viability: 0.871
Bemcentinib + Crizotinib; first compound 4 µM
  relative viability: 0.92
Axitinib + Olaparib; first compound 0.005 µM
  relative viability: 0.77
Axitinib + Olaparib; first compound 0.01581 µM
  relative viability: 0.75
Axitinib + Olaparib; first compound 0.05 µM
  relative viability: 0.766
Axitinib + Olaparib; first compound 0.1581 µM
  relative viability: 0.682
Axitinib + Olaparib; first compound 0.5 µM
  relative viability: 0.667
Axitinib + Phenformin; first compound 0.005 µM
  relative viability: 0.469
Axitinib + Phenformin; first compound 0.01581 µM
  relative viability: 0.458
Axitinib + Phenformin; first compound 0.05 µM
  relative viability: 0.51
Axitinib + Phenformin; first compound 0.1581 µM
  relative viability: 0.472
Axitinib + Phenformin; first compound 0.5 µM
  relative viability: 0.464

## HCC-44
[1]; first compound 1 µM
  relative viability: 0.433
[1]; first compound 3.162 µM
  relative viability: 0.475
[1]; first compound 10 µM
  relative viability: 0.539
[1]; first compound 31.62 µM
  relative viability: 0.408
[1]; first compound 100 µM
  relative viability: 0.423
Bemcentinib + Crizotinib; first compound 0.04 µM
  relative viability: 0.832
Bemcentinib + Crizotinib; first compound 0.1265 µM
  relative viability: 0.806
Bemcentinib + Crizotinib; first compound 0.4 µM
  relative viability: 0.864
Bemcentinib + Crizotinib; first compound 1.265 µM
  relative viability: 0.813
Bemcentinib + Crizotinib; first compound 4 µM
  relative viability: 0.852
Axitinib + Olaparib; first compound 0.005 µM
  relative viability: 0.955
Axitinib + Olaparib; first compound 0.01581 µM
  relative viability: 0.961
Axitinib + Olaparib; first compound 0.05 µM
  relative viability: 0.963
Axitinib + Olaparib; first compound 0.1581 µM
  relative viability: 0.947
Axitinib + Olaparib; first compound 0.5 µM
  relative viability: 1
Axitinib + Phenformin; first compound 0.005 µM
  relative viability: 0.165
Axitinib + Phenformin; first compound 0.01581 µM
  relative viability: 0.27
Axitinib + Phenformin; first compound 0.05 µM
  relative viability: 0.211
Axitinib + Phenformin; first compound 0.1581 µM
  relative viability: 0.198
Axitinib + Phenformin; first compound 0.5 µM
  relative viability: 0.176

## HCC-78
[1]; first compound 1 µM
  relative viability: 0.134
[1]; first compound 3.162 µM
  relative viability: 0.218
[1]; first compound 10 µM
  relative viability: 0.174
[1]; first compound 100 µM
  relative viability: 0.196
Bemcentinib + Crizotinib; first compound 0.04 µM
  relative viability: 0.322
Bemcentinib + Crizotinib; first compound 0.1265 µM
  relative viability: 0.344
Bemcentinib + Crizotinib; first compound 0.4 µM
  relative viability: 0.334
Bemcentinib + Crizotinib; first compound 1.265 µM
  relative viability: 0.334
Bemcentinib + Crizotinib; first compound 4 µM
  relative viability: 0.328
Axitinib + Olaparib; first compound 0.005 µM
  relative viability: 0.925
Axitinib + Olaparib; first compound 0.01581 µM
  relative viability: 0.814
Axitinib + Olaparib; first compound 0.05 µM
  relative viability: 0.674
Axitinib + Olaparib; first compound 0.1581 µM
  relative viability: 0.776
Axitinib + Olaparib; first compound 0.5 µM
  relative viability: 0.813
Axitinib + Phenformin; first compound 0.005 µM
  relative viability: 0.67
Axitinib + Phenformin; first compound 0.01581 µM
  relative viability: 0.667
Axitinib + Phenformin; first compound 0.05 µM
  relative viability: 0.752
Axitinib + Phenformin; first compound 0.1581 µM
  relative viability: 0.657
Axitinib + Phenformin; first compound 0.5 µM
  relative viability: 0.474

## HCC-366
[1]; first compound 1 µM
  relative viability: 0.105
[1]; first compound 3.162 µM
  relative viability: 0.106
[1]; first compound 10 µM
  relative viability: 0.136
[1]; first compound 31.62 µM
  relative viability: 0.136
[1]; first compound 100 µM
  relative viability: 0.112
Bemcentinib + Crizotinib; first compound 0.04 µM
  relative viability: 0.524
Bemcentinib + Crizotinib; first compound 0.1265 µM
  relative viability: 0.902
Bemcentinib + Crizotinib; first compound 0.4 µM
  relative viability: 0.583
Bemcentinib + Crizotinib; first compound 1.265 µM
  relative viability: 0.629
Bemcentinib + Crizotinib; first compound 4 µM
  relative viability: 0.383
Axitinib + Olaparib; first compound 0.005 µM
  relative viability: 0.362
Axitinib + Olaparib; first compound 0.01581 µM
  relative viability: 0.33
Axitinib + Olaparib; first compound 0.05 µM
  relative viability: 0.422
Axitinib + Olaparib; first compound 0.1581 µM
  relative viability: 0.304
Axitinib + Olaparib; first compound 0.5 µM
  relative viability: 0.37
Axitinib + Phenformin; first compound 0.005 µM
  relative viability: 0.689
Axitinib + Phenformin; first compound 0.01581 µM
  relative viability: 0.615
Axitinib + Phenformin; first compound 0.05 µM
  relative viability: 0.631
Axitinib + Phenformin; first compound 0.1581 µM
  relative viability: 0.553
Axitinib + Phenformin; first compound 0.5 µM
  relative viability: 0.653

## HCC-827
[1]; first compound 1 µM
  relative viability: 1.05
[1]; first compound 3.162 µM
  relative viability: 0.982
[1]; first compound 10 µM
  relative viability: 0.907
[1]; first compound 31.62 µM
  relative viability: 0.791
[1]; first compound 100 µM
  relative viability: 1.02
Bemcentinib + Crizotinib; first compound 0.04 µM
  relative viability: 0.971
Bemcentinib + Crizotinib; first compound 0.1265 µM
  relative viability: 0.867
Bemcentinib + Crizotinib; first compound 0.4 µM
  relative viability: 0.914
Bemcentinib + Crizotinib; first compound 1.265 µM
  relative viability: 1
Bemcentinib + Crizotinib; first compound 4 µM
  relative viability: 0.939
Axitinib + Olaparib; first compound 0.005 µM
  relative viability: 0.617
Axitinib + Olaparib; first compound 0.01581 µM
  relative viability: 0.566
Axitinib + Olaparib; first compound 0.05 µM
  relative viability: 0.66
Axitinib + Olaparib; first compound 0.1581 µM
  relative viability: 0.62
Axitinib + Olaparib; first compound 0.5 µM
  relative viability: 0.812
Axitinib + Phenformin; first compound 0.005 µM
  relative viability: 0.408
Axitinib + Phenformin; first compound 0.01581 µM
  relative viability: 0.4
Axitinib + Phenformin; first compound 0.05 µM
  relative viability: 0.419
Axitinib + Phenformin; first compound 0.1581 µM
  relative viability: 0.381
Axitinib + Phenformin; first compound 0.5 µM
  relative viability: 0.459

## HOP-62
[1]; first compound 1 µM
  relative viability: 0.376
[1]; first compound 3.162 µM
  relative viability: 0.822
[1]; first compound 10 µM
  relative viability: 0.875
[1]; first compound 31.62 µM
  relative viability: 0.342
[1]; first compound 100 µM
  relative viability: 0.804
Bemcentinib + Crizotinib; first compound 0.04 µM
  relative viability: 1.01
Bemcentinib + Crizotinib; first compound 0.1265 µM
  relative viability: 1.08
Bemcentinib + Crizotinib; first compound 1.265 µM
  relative viability: 0.734
Bemcentinib + Crizotinib; first compound 4 µM
  relative viability: 1.03
Axitinib + Olaparib; first compound 0.005 µM
  relative viability: 0.392
Axitinib + Olaparib; first compound 0.01581 µM
  relative viability: 0.443
Axitinib + Olaparib; first compound 0.05 µM
  relative viability: 0.321
Axitinib + Olaparib; first compound 0.1581 µM
  relative viability: 0.569
Axitinib + Olaparib; first compound 0.5 µM
  relative viability: 0.682
Axitinib + Phenformin; first compound 0.005 µM
  relative viability: 0.73
Axitinib + Phenformin; first compound 0.01581 µM
  relative viability: 0.63
Axitinib + Phenformin; first compound 0.05 µM
  relative viability: 0.742
Axitinib + Phenformin; first compound 0.1581 µM
  relative viability: 0.665
Axitinib + Phenformin; first compound 0.5 µM
  relative viability: 0.853

## IA-LM
[1]; first compound 1 µM
  relative viability: 0.369
[1]; first compound 3.162 µM
  relative viability: 0.298
[1]; first compound 10 µM
  relative viability: 0.312
[1]; first compound 31.62 µM
  relative viability: 0.344
[1]; first compound 100 µM
  relative viability: 0.291
Bemcentinib + Crizotinib; first compound 0.04 µM
  relative viability: 0.777
Bemcentinib + Crizotinib; first compound 0.1265 µM
  relative viability: 0.654
Bemcentinib + Crizotinib; first compound 0.4 µM
  relative viability: 0.947
Bemcentinib + Crizotinib; first compound 1.265 µM
  relative viability: 0.752
Bemcentinib + Crizotinib; first compound 4 µM
  relative viability: 0.842
Axitinib + Olaparib; first compound 0.005 µM
  relative viability: 1.07
Axitinib + Olaparib; first compound 0.01581 µM
  relative viability: 0.855
Axitinib + Olaparib; first compound 0.05 µM
  relative viability: 0.821
Axitinib + Olaparib; first compound 0.1581 µM
  relative viability: 0.808
Axitinib + Olaparib; first compound 0.5 µM
  relative viability: 0.832

## LC-2-ad
[1]; first compound 1 µM
  relative viability: 0.414
[1]; first compound 3.162 µM
  relative viability: 0.382
[1]; first compound 10 µM
  relative viability: 0.489
[1]; first compound 31.62 µM
  relative viability: 0.304
[1]; first compound 100 µM
  relative viability: 0.18
Bemcentinib + Crizotinib; first compound 0.04 µM
  relative viability: 0.467
Bemcentinib + Crizotinib; first compound 0.1265 µM
  relative viability: 0.482
Bemcentinib + Crizotinib; first compound 0.4 µM
  relative viability: 0.416
Bemcentinib + Crizotinib; first compound 1.265 µM
  relative viability: 0.411
Bemcentinib + Crizotinib; first compound 4 µM
  relative viability: 0.452
Axitinib + Olaparib; first compound 0.005 µM
  relative viability: 0.735
Axitinib + Olaparib; first compound 0.01581 µM
  relative viability: 0.693
Axitinib + Olaparib; first compound 0.05 µM
  relative viability: 0.738
Axitinib + Olaparib; first compound 0.1581 µM
  relative viability: 0.708
Axitinib + Olaparib; first compound 0.5 µM
  relative viability: 0.76
Axitinib + Phenformin; first compound 0.005 µM
  relative viability: 0.578
Axitinib + Phenformin; first compound 0.01581 µM
  relative viability: 0.592
Axitinib + Phenformin; first compound 0.05 µM
  relative viability: 0.586
Axitinib + Phenformin; first compound 0.1581 µM
  relative viability: 0.527
Axitinib + Phenformin; first compound 0.5 µM
  relative viability: 0.498
